This note sets out measurements from patent US10174380B2, “Methods for predicting multiple myeloma treatment response” (INSERM (INSTITUT NATIONAL DE LA SANTE ET DE LA RECHERCHE …, priority 2012, dated 2019).

Common to all, as to format: cell-based, human
Data set [1] deals with 5 HMCLs with low HA Score. As to the kind of experiment: Growth assay for myeloma cells (Cell Titer Glo, intracellular ATP), HMCLs with low HA Score. The following applies: 4 days culture, read-out: median IC50. As to the method: (§1) Data are mean values plus or minus standard deviation (SD) of 5 experiments determined on sextuplet culture wells.
(§2) HMCLs were cultured for 4 days in 96-well flat-bottom microtiter plates in RPMI 1640 medium, 10% FCS, 2 ng/ml IL-6 culture medium (control), with graded Panobinostat (A), VPA […] or SAHA (C) concentrations. Data are mean values plus or minus standard deviation (SD) of 5 experiments determined on sextuplet culture wells.
(§3) Cell growth was evaluated by quantifying intracellular ATP amount with a Cell Titer Glo Luminescent Assay (Promega, Madison, Wis.) with a Centro LB 960 luminometer (Berthold Technologies, Bad Wildbad, Germany).
(§4) The inventors sought to determine whether HA Score could predict for the sensitivity of 10 HMCLs to HDAC inhibitor.
(§5) The inventors sought to determine whether HA Score could predict for the sensitivity of myeloma cells to clinical grade HDAC inhibitors {Neri, 2012 #3317}.

Data set [2] relates to 5 HMCLs with the highest HA Score. Nature of the data set: Growth assay for myeloma cells (Cell Titer Glo, intracellular ATP), HMCLs with high HA Score. The following applies: 4 days culture, read-out: median IC50. As to the method:
as §1, §2, §3, §4, §5

In data set [3] the test system is primary MMCs of patients with high HA Score. Nature of the data set: Mononuclear cell culture, CD138+ viable plasma cell count, patients with high HA Score. The note with it: day 4; for Myeloma cell number/culture well: individual patients with high HA Score; for Myeloma cell number/culture well, Mean: mean of 8 patients with high HA Score. As to the method: (§6) At day 4 of culture, the cell count and the viability were determined and the percentage of CD138^+ viable plasma cells was determined by flow cytometry. Black color represents patients with high HA Score (N=8) and white represents patients with low HA Score values (N=5).
(§7) In each culture group, viability and cell counts were assayed and MMCs were stained with an anti-CD138-PE mAb (Immunotech, Marseille, France) as previously described (35).
(§8) The characteristics of patients with MM included in this study are described in Table 3.

The test system of data set [4] is primary MMCs of patients with low HA Score. Nature of the data set: Mononuclear cell culture, CD138+ viable plasma cell count, patients with low HA Score. The note with it: day 4; for Myeloma cell number/culture well: individual patients with low HA Score; for Myeloma cell number/culture well, Mean: mean of 5 patients with low HA Score. The method, then:
as §6, §7, §8

The next data set has as its system XG-20. Nature of the data set: Cell viability by trypan blue exclusion. The following applies: 0.33 μM TSA, 24 h (Day 1), mean ± SD, 3 experiments. As to the method:
(§9) The human MM cell lines XG-5, XG-6, XG-7, XG-20 and LP1 were grown in RPMI 1640 supplemented with 10% fetal bovine serum and 2 ng/mL recombinant IL-6. […] Control cells were cultured in the same conditions without TSA.

The next data set relates to XG-5. As to the kind of experiment: Cell viability by trypan blue exclusion. The following applies: 0.33 μM TSA, 24 h (Day 1), mean ± SD, 3 experiments. As to the method:
as §9

Another data set relates to XG-7. As to the kind of experiment: Cell viability by trypan blue exclusion. The note with it: 0.33 μM TSA, 24 h (Day 1), mean ± SD, 3 experiments. The method, then: as §9
A further data set concerns XG-6. Nature of the data set: Cell viability by trypan blue exclusion. The following applies: 0.33 μM TSA, 24 h (Day 1), mean ± SD, 3 experiments. As to the method: as §9
Another data set has as its system LP1. As to the kind of experiment: Cell viability by trypan blue exclusion. The note with it: 0.33 μM TSA, 24 h (Day 1), mean ± SD, 3 experiments. As to the method: as §9
For another data set, the system named is Five HMCLs. Nature of the data set: Cell viability of the five TSA treated HMCLs (summary statement). The note with it: 0.33 μM TSA for 24 h. As to the method: as §9
The prognostic information of HDACi regulated genes was gathered within an histone acetylation score (HA Score), which was the sum of the beta coefficients of the Cox model weighted by ±1 according to the patient MMC signal above or below the probe set maxstat value as described (34).

[5] abbreviates: Homo sapiens, 96 h, IL-6 2 ng/ml.

Each structure is given as a SMILES string. Values joined by “and” are separate entries in the source; they are usually repeats but may differ in a detail not shown here. Equal entries are not always repeated. Where two headings read alike, the source gives them in different places.

Take `CCCC(CCC)C(=O)O` [VPA, valproic acid]: the half-maximal inhibitory concentration (IC50) turned out to be 430 nM in data set [1] (Homo sapiens, 96 h) and 280 nM in [2] (Homo sapiens, 96 h).

`Cc1[nH]c2ccccc2c1CCNCc1ccc(/C=C/C(=O)NO)cc1` [Panobinostat, panobinostat]: the values for the IC50 in [1] (setting [5]) and in data set [2] (setting [5]) were 3.16 nM and 1.16 nM, respectively.

For the molecule `CC(/C=C/C(=O)NO)=C\[C@@H](C)C(=O)c1ccc(N(C)C)cc1` [TSA, trichostatin A], the “Myeloma cell number/culture well” value in data set [3] (5.1 nM TSA) was 43320 and 115520 and 72200 and 83752 and 19950 and 37544 and 48249 and 78844; in [3] (10.3 nM TSA), 31086 and 45216 and 50868 and 25434 and 12170 and 33912 and 38249 and 41860; in data set [3] (20.7 nM TSA) it was 22880 and 20592 (2×) and 38896 and 7650 and 18304 and 29064 and 32752; in [3] (41.3 nM TSA), 7250 (2×) and 29000 and 18850 and 11600 and 1736 and 5238 and 29790; in [4] (5.1 nM TSA), 72200 and 60648 and 14750 and 306768 and 19100; in data set [4] (10.3 nM TSA), 64998 and 62172 and 18486 and 254478 and 19458. The “Myeloma cell number/culture well” value is 54912 and 41184 and 14328 and 243978 and 18168 in [4] (20.7 nM TSA); 33350 and 26100 and 12765 and 235040 and 18876 in [4] (41.3 nM TSA). Moreover, the “Myeloma cell number/culture well, Mean” value in data set [3] (5.1 nM TSA) stood at 62422; in [3] (10.3 nM TSA), 34849; in data set [3] (20.7 nM TSA) it was 23841; in data set [3] (41.3 nM TSA), 13839; in data set [4] (5.1 nM TSA) it was 94693; in data set [4] (10.3 nM TSA) it was 83918. Further, the results for the “Myeloma cell number/culture well, Mean” value in data set [4] (20.7 nM TSA) and in data set [4] (41.3 nM TSA) were 74514 and 65226, respectively. Moreover, the “Cell viability (%)” value is listed as 100 ± 1% in the data set on XG-20; 70 ± 3% with XG-5; 100 ± 0% with XG-7; 100 ± 1% in the data set on XG-6; 100 ± 0% in the data set with LP1. In addition, the IC50 in data set [1] (IL-6 2 ng/ml) worked out at 52.3 nM; in [2] (IL-6 2 ng/ml), 11 nM. The “effect on myeloma cell viability” value in the data set with Five HMCLs was “did not affect myeloma cell viability”.
